The record followed here is publication PMC11855827, “High-Throughput Screening of Five Compound Libraries for Anthelmintic Activity and Toxicity Leads to the Discovery of Two Flavonoid Compounds” (International Journal of Molecular Sciences, 2025).

For the experiment, the system named is C. elegans. The experiment is described as follows: microbe, parasite or virus in culture. Particulars: Caenorhabditis elegans.
Where [1] appears, read: 0 h, read-out: Percentage of motility inhibition 0 h, Table S2, C. elegans SS assay, 110 μM, 0 h, averages of 4 data points.
Where [2] appears, read: 24 h, read-out: Percentage of motility inhibition 24 h, Table S2, C. elegans SS assay, 110 μM, 24 h, averages of 4 data points.

The structures appear in SMILES notation. Where a name gives a salt, the structure may show the parent alone. Read-outs that look alike come from different tables or passages of the source.

Turning to `COc1ccc(-c2coc3cc(O[C@@H]4O[C@H](CO)[C@@H](O)[C@H](O)[C@H]4O)ccc3c2=O)cc1` [Ononin], the inhibition at 110 µM reads like this: under setting [1], 10%; under setting [2], 0%.
The like results for `C=C1C(=O)[C@]23[C@H](O)[C@H]1CC[C@H]2[C@@]12CO[C@]3(O)[C@@H](O)[C@@H]1C(C)(C)CC[C@@H]2O` [Oridonin] were, in that order, 0% and 3%.
Regarding `Cc1ncc([N+](=O)[O-])n1CC(O)CCl` (stereo not drawn) [Ornidazole], the inhibition at 110 µM by setting is: under setting [1], 8%; under setting [2], 7%.
The like results for `COc1c(O)cc2oc(-c3ccccc3)cc(=O)c2c1O` [Oroxylin A] were, in that order, 39% and 12%.
The like results for `O=C(Nc1ccc(O)cc1)c1ccccc1O` [Osalmid] were, in that order, 48% and 1%.
In the case of `CN(C(=O)CN(CCO)CC(=O)N(C)C(C)(C)Cc1ccccc1)C(C)(C)Cc1ccccc1` [Oxethazaine], the inhibition at 110 µM was determined as 44% under setting [1] and 25% under setting [2].
On to `COC(=O)Nc1nc2ccc([S+]([O-])c3ccccc3)cc2[nH]1` (stereo not drawn) [Oxfendazole], for which the inhibition at 110 µM is, setting by setting: under setting [1], 12%; under setting [2], 5%.
With `CCCOc1ccc2nc(NC(=O)OC)[nH]c2c1` [Oxibendazole], the inhibition at 110 µM is, setting by setting: under setting [1], 17%; under setting [2], 28%.
For the compound `O=C1Cc2ccccc2N1` [Oxindole], the inhibition at 110 µM reads like this: under setting [1], 14%; under setting [2], 7%.
In the case of `O=C(Nc1cc(Cl)cc(Cl)c1O)c1c(O)c(Cl)cc(Cl)c1Cl` [Oxyclozanide, reference compound], the inhibition at 110 µM by setting is: (0 h, read-out: Inhibition (%) 110 μM (0 h), C. elegans L4 motility, 110 μM, 0 h, mean ± SD of four experiments) 10 ± 9%; (24 h, read-out: Inhibition (%) 110 μM (24 h), C. elegans L4 motility, 110 μM, 24 h, mean ± SD of four experiments) 93 ± 5%.
As to `CCCCC1C(=O)N(c2ccccc2)N(c2ccc(O)cc2)C1=O` (stereo not drawn) [Oxyphenbutazone], the inhibition at 110 µM came to 0% under setting [1] and 0% under setting [2].
As for `O=C1C=CC[C@@H]2[C@H]3CCC[N+]4([O-])CCC[C@@H](CN12)[C@@H]34` (stereo partly drawn) [Oxysophocarpine], the inhibition at 110 µM runs as follows: under setting [1], 34%; under setting [2], 0%.
The like results for `CN(C)[C@@H]1C(O)=C(C(N)=O)C(=O)[C@@]2(O)C(O)=C3C(=O)c4c(O)cccc4[C@@](C)(O)[C@H]3[C@H](O)[C@@H]12` [Oxytetracycline] were, in that order, 20% and 13%.
The like results for `O=[N+]([O-])c1cn2c(n1)OC[C@@H](OCc1ccc(OC(F)(F)F)cc1)C2` [PA‐824] were, in that order, 33% and 0%.
The like results for `CC(C)OC(=O)[C@H](C)N[P@](=O)(OC[C@H]1O[C@@H](n2ccc(=O)[nH]c2=O)[C@](C)(F)[C@@H]1O)Oc1ccccc1` [PSI‐7977] were, in that order, 6% and 11%.
As to `C=C(CC[C@@H](C(=O)O)[C@H]1[C@H](O)C[C@@]2(C)C3=C(CC[C@]12C)[C@@]1(C)CC[C@H](OC(C)=O)C(C)(C)[C@@H]1CC3)C(C)C` [Pachymic acid], the inhibition at 110 µM is, setting by setting: under setting [1], 45%; under setting [2], 21%.
The like results for `C[C@@]12C[C@@]3(O)O[C@@H](O1)[C@]1(COC(=O)c4ccccc4)[C@H]3C[C@@]12O[C@@H]1O[C@H](CO)[C@@H](O)[C@H](O)[C@H]1O` [Paeoniflorin] were, in that order, 4% and 10%.
As to `COc1ccc(C(C)=O)c(O)c1` [Paeonol], the inhibition at 110 µM amounted to 0% (0 h, read-out: Percentage of motility inhibition 0 h) and 0% (24 h, read-out: Percentage of motility inhibition 24 h).
As to `CC1(C)CCC[C@](C)([C@H]2CC[C@]3(C)[C@@H]2[C@H](O)C[C@@H]2[C@@]4(C)CC[C@H](O)C(C)(C)[C@@H]4CC[C@]23C)O1` [Panaxadiol], the inhibition at 110 µM under setting [1] turned out to be 39% and the inhibition at 110 µM under setting [2] worked out at 36%.
The like results for `C=C1C(=O)O[C@H]2[C@H]1CC/C(C)=C/CC[C@@]1(C)O[C@@H]21` [Parthenolide] were, in that order, 6% and 26%.
Regarding `COc1ccc(-c2cc(=O)c3c(O)c(OC)c(O)cc3o2)cc1` [Pectolinarigenin], the inhibition at 110 µM under setting [1] stood at 4% and the inhibition at 110 µM under setting [2] stood at 0%.
The like results for `C[C@@H]1CC[C@]2(C(=O)O[C@@H]3O[C@H](CO)[C@@H](O)[C@H](O)[C@H]3O)CC[C@]3(C)C(=CC[C@@H]4[C@@]5(C)CC[C@H](O)[C@@](C)(CO)[C@@H]5CC[C@]43C)[C@@H]2[C@]1(C)O` [Pedunculoside] were, in that order, 14% and 13%.
The like results for `Nc1nc2c(ncn2CCC(CO)CO)c(=O)[nH]1` [Penciclovir] were, in that order, 22% and 1%.
The like results for `CC1(C)S[C@@H]2[C@H](NC(=O)Cc3ccccc3)C(=O)N2[C@H]1C(=O)O` [Penicillin G s odium salt] were, in that order, 16% and 22%.
For the compound `CC(C)CC(C)c1sccc1NC(=O)c1cn(C)nc1C(F)(F)F` (stereo not drawn) [Penthiopyrad], the inhibition at 110 µM reads like this: under setting [1], 21%; under setting [2], 18%.
The like results for `CC(=O)O[C@@H]1[C@H]2[C@H]3C[C@H]4C5=Nc6ccccc6[C@]51C[C@@H]2N4[C@H](C)C3C=O` (stereo partly drawn) [Perakine] were, in that order, 0% and 0%.
As for `CC1(C)C(C=C(Cl)Cl)C1C(=O)OCc1cccc(Oc2ccccc2)c1` (stereo not drawn) [Permethrin], the inhibition at 110 µM is, setting by setting: under setting [1], 9%; under setting [2], 7%.
The like results for `O=C(O)c1cccc2nc3ccccc3nc12` [Phenazine‐1‐carboxylic acid] were, in that order, 0% and 11%.
For `O=C(CCc1ccc(O)cc1)c1c(O)cc(O)cc1O[C@@H]1O[C@H](CO)[C@@H](O)[C@H](O)[C@H]1O` [Phlorizin], the inhibition at 110 µM runs as follows: under setting [1], 0%; under setting [2], 2%.
The like results for `CC1=C[C@H]2[C@@]3(O)[C@H](C)[C@@H](O)[C@]4(O)[C@H]([C@@H]3C=C(CO)C[C@]2(O)C1=O)C4(C)C` [Phorbol] were, in that order, 0% and 6%.
Take `CC(=O)NS(=O)(=O)c1ccc(NC(=O)c2ccccc2C(=O)O)cc1` [Phthalylsulfacetamide]: the inhibition at 110 µM was determined as 32% under setting [1] and 2% under setting [2].
In the case of `O=C(O)c1ccccc1C(=O)Nc1ccc(S(=O)(=O)Nc2nccs2)cc1` [Phthalylsulfathiazole], the inhibition at 110 µM is, setting by setting: under setting [1], 12%; under setting [2], 0%.
Take `COc1cc(C(=O)O[C@H]2[C@@H]3C=CO[C@@H](O[C@@H]4O[C@H](CO)[C@@H](O)[C@H](O)[C@H]4O)[C@@H]3[C@@]3(CO)O[C@@H]23)ccc1O` [Picroside II]: the inhibition at 110 µM under setting [1] worked out at 0% and the inhibition at 110 µM under setting [2] came to 13%.
The like results for `O=C(/C=C/c1ccccc1)OC[C@H]1O[C@@H](O[C@@H]2OC=C[C@H]3[C@H](O)[C@@H]4O[C@]4(CO)[C@@H]23)[C@H](O)[C@@H](O)[C@@H]1O` [Picroside I] were, in that order, 6% and 17%.
As for `CC(C)(O)[C@@H]1[C@H]2OC(=O)[C@@H]1[C@]1(O)C[C@H]3O[C@]34C(=O)O[C@H]2[C@]14C` [Picrotin], the inhibition at 110 µM reads like this: under setting [1], 0%; under setting [2], 0%.
Take `O=C(O)[C@H]1C2CCC(CC2)[C@@H]1Nc1nc(-c2c[nH]c3ncc(F)cc23)ncc1F` [Pimodivir]: the inhibition at 110 µM is, setting by setting: under setting [1], 7%; under setting [2], 9%.

By inhibition is commonly meant how much of the control response was suppressed.
